According to patent US10005736B1, “Pyridine and pyrimidine derivatives” (Hoffmann-La Roche Inc., priority 2015, dated 2018):

Tests used:
human EAAT3 = target: T1, human EAAT3 (Homo sapiens, UniProt P43005); experiment: FLIPR Membrane Potential (FMP) assay, antagonist potency at human EAAT3; format: cell-based; details: HEK-293 cells stably expressing human EAAT3; L-glutamate as agonist at EC80; antagonists applied 15 min before; Kb by Cheng-Prusoff from IC50
T1 construct: expressed in transfected cells; host or cells: HEK-293
T1 sequence (P43005 1-524): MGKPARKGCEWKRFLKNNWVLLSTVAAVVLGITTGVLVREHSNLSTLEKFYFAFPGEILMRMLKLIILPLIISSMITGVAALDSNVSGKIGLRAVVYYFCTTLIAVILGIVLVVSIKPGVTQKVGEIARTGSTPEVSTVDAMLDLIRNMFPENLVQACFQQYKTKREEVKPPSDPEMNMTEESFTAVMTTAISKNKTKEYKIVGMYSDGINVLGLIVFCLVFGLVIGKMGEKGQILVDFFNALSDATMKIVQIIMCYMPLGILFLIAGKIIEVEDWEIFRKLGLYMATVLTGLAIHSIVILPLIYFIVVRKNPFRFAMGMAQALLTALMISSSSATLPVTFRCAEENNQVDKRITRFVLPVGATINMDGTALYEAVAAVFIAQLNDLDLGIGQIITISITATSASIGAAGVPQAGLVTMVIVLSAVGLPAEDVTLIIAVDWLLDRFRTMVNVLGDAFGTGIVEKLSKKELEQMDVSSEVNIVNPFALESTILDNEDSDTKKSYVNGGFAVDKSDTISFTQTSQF
Experimental: The FLIPR Membrane Potential (FMP) Assay
HEK-293 cells stably expressing human EAAT3 were seeded at 55 000 cells/well in growth medium (DMEM glutamate free (Invitrogen 11960-044), 1% Pen Strep (10 ml/1 GIBCO BRL N^o 15140-023), 10% FCS non dialysed heat inactivated, 5 mg/l puromycin) in poly-D-lysine treated 96-well black microtiter plates with clear-bottom. After 24 h, the growth medium was removed and […] of Krebs buffer (140 mM NaCl, 4.7 mM KCl, 2.5 mM CaCl2, 1.2 mM MgCl2, 11 mM HEPES, 10 mM D-glucose, pH=7.4) added. The cells were then loaded by adding 100 μl/well FMP assay dye (FLIPR Membrane Potential assay reagent, Molecular Devices). The 96-well plates were then incubated at 37° C. for 1 h. The depolarization of the cells will cause more dye to enter in the cells, where it will bind to intracellular proteins and lipids and cause an increase in the fluorescence signal. Antagonist potency at human EAAT3 was determined by using L-glutamate as agonist at a concentration which gives 80% of the maximum response. The antagonists were applied 15 min before the application of the agonist L-glutamate. The assays were performed at room temperature and measurements done by using a Fluorometric Imaging Plate Reader (FLIPR, Molecular Devices) and filter #2. Responses were measured as peak increase in fluorescence minus basal (i.e. fluorescence without addition of L-glutamate). Kb was determined using the Cheng-Prusoff equation Kb=IC50/[1+(A/EC50)], where IC50 is the concentration of the antagonist producing 50% inhibition, A is the concentration of the agonist against which the IC50 is being determined (at EC80) and EC50 is the concentration of the agonist producing 50% […].

SMILES	melting point [°C]	Kb (human EAAT3) [µM]
Cc1ccncc1-c1cc(C(=O)NC(C)(C)C2CC2)cc(-c2ccc(F)cc2)c1 [Example 23, N-(2-Cyclopropylpropan-2-yl)-3-(4-fluorophenyl)-5-(4-methylpyridin-3-yl)-benzamide]	76	0.078
Cc1ncccc1-c1cc(C(=O)NC(C)(C)C)cc(-c2ccc(F)cc2)c1 [Example 24, N-tert-Butyl-3-(4-fluorophenyl)-5-(2-methylpyridin-3-yl)-benzamide]	78	0.17
Cc1ccc(-c2cc(C(=O)NC(C)(C)C)cc(-c3cncnc3C(C)C)c2)cc1 [Example 25, N-tert-Butyl-3-(4-methylphenyl)-5-(4-propan-2-ylpyrimidin-5-yl)-benzamide]	91	0.25
CC(C)c1ncncc1-c1cc(C(=O)NC(C)(C)C)cc(-c2ccc(C3CC3)cc2)c1 [Example 27, N-tert-Butyl-3-(4-cyclopropylphenyl)-5-(4-propan-2-ylpyrimidin-5-yl)-benzamide]	91.5	0.18
CC(C)c1ncncc1-c1cc(C(=O)NC(C)(C)C)cc(-c2ccc(C(F)(F)F)cc2)c1 [Example 28, N-tert-Butyl-3-(4-propan-2-ylpyrimidin-5-yl)-5-[4-(trifluoromethyl)-phenyl]-benzamide]	168	0.31
CC(C)c1ncncc1-c1cc(C(=O)NC(C)(C)C)cc(-c2ccc(C#N)cc2)c1 [Example 32, N-tert-Butyl-3-(4-cyanophenyl)-5-(4-propan-2-ylpyrimidin-5-yl)-benzamide]	98	0.57
COc1ccc(-c2cc(C(=O)NC(C)(C)C)cc(-c3cncnc3C(C)C)c2)cc1 [Example 33, N-tert-Butyl-3-(4-methoxyphenyl)-5-(4-propan-2-ylpyrimidin-5-yl)-benzamide]	84	0.54
CC(C)(C)NC(=O)c1cc(-c2ccc(Cl)cc2)cc(-c2cncnc2C2CC2)c1 [Example 39, N-tert-Butyl-3-(4-chlorophenyl)-5-(4-cyclopropyl-pyrimidin-5-yl)-benzamide]	96	0.27
CCc1ncncc1-c1cc(C(=O)NC(C)(C)C)cc(-c2ccc(Cl)cc2)c1 [Example 40, N-tert-Butyl-3-(4-chlorophenyl)-5-(4-ethyl-pyrimidin-5-yl)-benzamide]	75	0.14

Results, then the compound that gave them:

melting point [°C]	Kb (human EAAT3) [µM]	SMILES
80	0.1	CC(C)c1ncncc1-c1cc(C(=O)NC(C)(C)C)cc(-c2ccc(F)c(F)c2)c1 [Example 26, N-tert-Butyl-3-(3,4-difluorophenyl)-5-(4-propan-2-ylpyrimidin-5-yl)-benzamide]
83	0.72	Cc1cc(-c2cc(C(=O)NC(C)(C)C)cc(-c3cncnc3C(C)C)c2)ccc1F [Example 29, N-tert-Butyl-3-(4-fluoro-3-methylphenyl)-5-(4-propan-2-ylpyrimidin-5-yl)-benzamide]
90	0.77	Cc1ccc(-c2cc(C(=O)NC(C)(C)C)cc(-c3cncnc3C(C)C)c2)cc1F [Example 30, N-tert-Butyl-3-(3-fluoro-4-methylphenyl)-5-(4-propan-2-ylpyrimidin-5-yl)-benzamide]
93	0.32	CC(C)c1ncncc1-c1cc(C(=O)NC(C)(C)C)cc(-c2ccc(Cl)c(F)c2)c1 [Example 31, N-tert-Butyl-3-(4-chloro-3-fluorophenyl)-5-(4-propan-2-ylpyrimidin-5-yl)-benzamide]
102.5	0.4	Cc1ccc(-c2cc(C(=O)NC(C)(C)C#N)cc(-c3cncnc3C(C)C)c2)cc1F [Example 34, N-(2-Cyanopropan-2-yl)-3-(3-fluoro-4-methylphenyl)-5-(4-propan-2-yl-pyrimidin-5-yl)-benzamide]
101	0.35	Cc1cc(-c2cc(C(=O)NC(C)(C)C#N)cc(-c3cncnc3C(C)C)c2)ccc1F [Example 35, N-(2-Cyanopropan-2-yl)-3-(4-fluoro-3-methylphenyl)-5-(4-propan-2-yl-pyrimidin-5-yl)-benzamide]
97	0.27	CC(C)c1ncncc1-c1cc(C(=O)NC(C)(C)C#N)cc(-c2ccc(F)cc2)c1 [Example 36, N-(2-Cyanopropan-2-yl)-3-(4-fluorophenyl)-5-(4-propan-2-yl-pyrimidin-5-yl)-benzamide]
98	0.21	CC(C)c1ncncc1-c1cc(C(=O)NC(C)(C)C#N)cc(-c2ccc(C(F)(F)F)cc2)c1 [Example 37, N-(2-Cyanopropan-2-yl)-3-(4-propan-2-yl-pyrimidin-5-yl)-5-[4-(trifluoromethyl)-phenyl]-benzamide]
97	0.16	CC(C)c1ncncc1-c1cc(C(=O)NC(C)(C)C#N)cc(-c2ccc(Cl)cc2)c1 [Example 38, 3-(4-Chlorophenyl)-N-(2-cyanopropan-2-yl)-5-(4-propan-2-yl-pyrimidin-5-yl)-benzamide]
